Results reported in ChEMBL document CHEMBL1139268, “Camphor sulfonamide derivatives as novel, potent and selective CXCR3 antagonists” (Bioorg Med Chem Lett, 2009).

Each compound was assayed against T1, C-X-C chemokine receptor type 3 (Homo sapiens, UniProt P49682) (assay: Antagonist activity at human recombinant CXCR3 receptor expressed in CHO-K1 cells assessed as human IP10-induced calcium flux by FLIPR assay).
T1 sequence (P49682 whole entry): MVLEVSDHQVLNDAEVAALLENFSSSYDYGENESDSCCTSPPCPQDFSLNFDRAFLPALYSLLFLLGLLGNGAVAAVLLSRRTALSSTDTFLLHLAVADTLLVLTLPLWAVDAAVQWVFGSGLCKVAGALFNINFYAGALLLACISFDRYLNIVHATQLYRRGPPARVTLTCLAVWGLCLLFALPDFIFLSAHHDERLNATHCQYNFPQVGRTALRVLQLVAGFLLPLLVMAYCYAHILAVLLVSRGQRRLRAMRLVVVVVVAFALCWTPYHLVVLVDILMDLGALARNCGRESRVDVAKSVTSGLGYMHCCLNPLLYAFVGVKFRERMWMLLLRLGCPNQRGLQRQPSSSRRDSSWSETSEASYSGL
Assay type: functional, cell-based

First: CC1(C)[C@@H]2CC[C@@]1(CS(=O)(=O)N1CCN(c3ccc(C(F)(F)F)cn3)C(c3ccccc3)C1)C(=O)C2 (stereo not given in full)
Second: C[C@@H]1CN(S(=O)(=O)C[C@]23CC[C@H](CC2=O)C3(C)C)CCN1c1ccc(C(F)(F)F)cn1
The IC50 of the first is higher: greater than 31600 nM for the first, 501 nM for the second. The second is the more potent here.

Compared with CC1(C)[C@@H]2CC[C@@]1(CS(=O)(=O)N1C[C@@H]3C[C@H]1CN3c1ccc(C(F)(F)F)cn1)C(=O)C2, C[C@@H]1CN(c2ccc(C(F)(F)F)cn2)[C@@H](C)CN1S(=O)(=O)C[C@]12CC[C@H](CC1=O)C2(C)C is lower in IC50: greater than 31600 nM for the first, 6310 nM for the second.

First: CC1(C)[C@@H]2CC[C@]1(CS(=O)(=O)N1CCN(c3ccc(C(F)(F)F)cn3)CC1)C(=O)C2
Second: CC1(C)[C@@H]2CC[C@@]1(CS(=O)(=O)N1CCCN(c3ccc(C(F)(F)F)cn3)CC1)C(=O)C2
The IC50 of the first is 4-fold lower: 1580 nM for the first, 6310 nM for the second. The first is the more potent here.

First: CC1(C)[C@@H]2CC[C@@]1(CS(=O)(=O)N1CCN(c3ccc(C(F)(F)F)cn3)C(CO)C1)C(=O)C2 (stereo not given in full)
Second: CCC1CN(S(=O)(=O)C[C@]23CC[C@H](CC2=O)C3(C)C)CCN1c1ccc(C(F)(F)F)cn1 (stereo not given in full)
The IC50 of the first is 1.6-fold lower: 398 nM for the first, 631 nM for the second.

Compared with CC1(C)[C@@H]2CC[C@@]1(CS(=O)(=O)N1CCN(c3ncccc3C(F)(F)F)CC1)C(=O)C2, CC1(C)[C@@H]2CC[C@@]1(CS(=O)(=O)N1CCN(c3cc(C(F)(F)F)ccn3)CC1)C(=O)C2 is lower in IC50: greater than 31600 nM for the first, 25100 nM for the second.

First: CC(C)C1CN(S(=O)(=O)C[C@]23CC[C@H](CC2=O)C3(C)C)CCN1c1ccc(C(F)(F)F)cn1 (stereo not given in full)
Second: CC1CN(c2ccc(C(F)(F)F)cn2)CCN1S(=O)(=O)C[C@]12CC[C@H](CC1=O)C2(C)C (stereo not given in full)
The IC50 of the first is higher: greater than 31600 nM for the first, 631 nM for the second.

CC1(C)[C@@H]2CC[C@@]1(CS(=O)(=O)N1CCN(c3ccc(C(F)(F)F)cn3)CC1)C1(C2)OCCO1 and CC1(O)C[C@H]2CC[C@]1(CS(=O)(=O)N1CCN(c3ccc(C(F)(F)F)cn3)CC1)C2(C)C (stereo not given in full) are the same in IC50: 200 nM for the first, 200 nM for the second.

First: CC1(C)[C@@H]2CC[C@@]1(CS(=O)(=O)N1CCN(c3ccc(Br)cn3)CC1)C(=O)C2
Second: CC1(C)[C@@H]2CC[C@@]1(CS(=O)(=O)N1CCN(c3ccc(C#N)cn3)CC1)C(=O)C2
The IC50 of the first is lower: 1580 nM for the first, greater than 31600 nM for the second. The first is the more potent here.

Going from CC1(C)[C@@H]2CC[C@@]1(CS(=O)(=O)N1CCN(c3ccc(C(F)(F)F)cc3F)CC1)C(=O)C2 to CC1(C)[C@@H]2CC[C@@]1(CS(=O)(=O)N1CCN(c3ccc(C(F)(F)F)cc3)CC1)C(=O)C2, the IC50 rises from 2000 nM to greater than 31600 nM. The first is the more potent here.

Going from CC1(C)[C@@H]2CC[C@@]1(CS(=O)(=O)N1CCN(c3ncc(C(F)(F)F)cc3[N+](=O)[O-])CC1)C(=O)C2 to CC1(C)[C@@H]2CC[C@@]1(CS(=O)(=O)N1CCN(c3ncc(C(F)(F)F)cc3Cl)CC1)C(=O)C2, the IC50 falls from 3160 nM to 398 nM (7.9-fold).

CC1(C)[C@@H]2CC[C@@]1(CS(=O)(=O)N1CCN(c3ccc(C(F)(F)F)cn3)CC1)C(NS(C)(=O)=O)C2 (stereo not given in full) and CC1(C)[C@@H]2CC[C@@]1(CS(=O)(=O)N1CCN(c3ccc(C(F)(F)F)cn3)CC1)C(F)C2 (stereo not given in full) are within 1.5-fold of each other in IC50: 631 nM for the first, 794 nM for the second.

First: CC1(C)[C@@H]2CC[C@@]1(CS(=O)(=O)NC1CCN(c3ccc(C(F)(F)F)cn3)CC1)C(=O)C2
Second: CC1(C)[C@@H]2CC[C@@]1(CS(=O)(=O)N1CCN(c3ncc(C(F)(F)F)cn3)CC1)C(=O)C2
The IC50 of the first is 50-fold higher: 15800 nM for the first, 316 nM for the second. The second is the more potent here.

Going from C[C@@H]1CN(S(=O)(=O)C[C@]23CC[C@H](CC2=O)C3(C)C)CCN1c1ncc(C(F)(F)F)cc1F to CC1(C)[C@@H]2CC[C@@]1(CS(=O)(=O)N1CCN(c3nc(Cl)c(C(F)(F)F)cc3Cl)CC1)C(=O)C2, the IC50 falls from 501 nM to 316 nM (1.6-fold). The second is the more potent here.

Compared with CCNC(=O)NC1C[C@H]2CC[C@]1(CS(=O)(=O)N1CCN(c3ccc(C(F)(F)F)cn3)CC1)C2(C)C (stereo not given in full), CC1(C)[C@@H]2CC[C@@]1(CS(=O)(=O)N1CCN(c3ccc(C(F)(F)F)nn3)CC1)C(=O)C2 is 6.3-fold higher in IC50: 794 nM for the first, 5010 nM for the second. The first is the more potent here.

Compared with CC1(C)[C@@H]2CC[C@@]1(CS(=O)(=O)N1CCN(c3ncc(Br)cn3)CC1)C(=O)C2, CC1(C)[C@@H]2CC[C@@]1(CS(=O)(=O)N1CCN(c3ccc([N+](=O)[O-])cn3)CC1)C(=O)C2 is higher in IC50: 631 nM for the first, greater than 31600 nM for the second.
